Source: patent US20050222146A1, “N-substituted-n-sulfonylaminocyclopropane compounds and pharmaceutical use thereof” (priority 2003, published 2005)

Assays:
Format in all cases: biochemical
aggrecanase-1 = target: T1, aggrecanase-1 (Homo sapiens, UniProt O75173); assay: Aggrecanase-1 inhibitory action, Particle Assay (GAG release from aggrecan-containing polyacrylamide particles); settings: 37° C. for 15 hr, read-out: Experimental Example 1 IC50 AG1
T1 sequence (O75173 213-837): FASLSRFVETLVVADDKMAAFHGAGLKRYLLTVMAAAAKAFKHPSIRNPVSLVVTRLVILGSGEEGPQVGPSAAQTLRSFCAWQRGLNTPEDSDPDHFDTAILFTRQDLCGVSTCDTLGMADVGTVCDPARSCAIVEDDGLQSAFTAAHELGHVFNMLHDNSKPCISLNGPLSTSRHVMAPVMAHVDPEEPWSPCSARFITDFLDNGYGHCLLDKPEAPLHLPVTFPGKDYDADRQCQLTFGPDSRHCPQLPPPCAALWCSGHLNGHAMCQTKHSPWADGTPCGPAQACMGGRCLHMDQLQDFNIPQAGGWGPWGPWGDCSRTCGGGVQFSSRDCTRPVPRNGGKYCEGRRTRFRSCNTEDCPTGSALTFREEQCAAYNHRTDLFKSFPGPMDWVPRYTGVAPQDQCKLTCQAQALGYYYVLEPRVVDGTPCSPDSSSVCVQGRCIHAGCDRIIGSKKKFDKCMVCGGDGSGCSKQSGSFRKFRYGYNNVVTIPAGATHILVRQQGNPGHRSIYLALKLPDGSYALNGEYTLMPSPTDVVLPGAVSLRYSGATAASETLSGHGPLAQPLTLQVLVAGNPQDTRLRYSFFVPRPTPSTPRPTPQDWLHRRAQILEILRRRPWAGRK
In short: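 IC50 (μM) derived from % inhibition, referenced to enzyme-free and inhibitor-free wells, of GAG release read as 1,9-dimethylmethylene blue absorbance at 595 nm (chondroitin sulfate standard). Substrate: aggrecan-bearing polyacrylamide particles, exposed to enzyme plus compound in Tris-HCl for 15 hr at 37 °C.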

MMP-1 = target: T2, MMP-1 (Homo sapiens, UniProt P03956); assay: MMP-1 inhibitory action, Type I collagen Activity Measurement kit (FITC-labeled collagen type I); settings: 37° C. for 3 hr, read-out: Experimental Example 2 IC50 MMP1
T2 sequence (P03956 100-469): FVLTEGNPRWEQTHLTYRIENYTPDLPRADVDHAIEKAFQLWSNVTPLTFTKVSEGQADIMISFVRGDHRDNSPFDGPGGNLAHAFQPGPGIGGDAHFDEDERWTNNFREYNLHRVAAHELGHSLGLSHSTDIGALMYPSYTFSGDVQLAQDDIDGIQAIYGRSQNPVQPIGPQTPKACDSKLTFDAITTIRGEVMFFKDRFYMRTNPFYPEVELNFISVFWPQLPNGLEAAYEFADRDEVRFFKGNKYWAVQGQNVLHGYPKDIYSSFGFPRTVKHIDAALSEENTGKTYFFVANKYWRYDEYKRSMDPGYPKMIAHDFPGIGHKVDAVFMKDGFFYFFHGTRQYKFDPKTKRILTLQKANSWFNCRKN

Recombinant Human MMP-13 = target: T3, Recombinant Human MMP-13 (Homo sapiens, UniProt P45452); assay: MMP-13 inhibition, MMP-13 specific fluorescent substrate with quencher; settings: synthetic substrate 7-MCA-Pro-CHA-Gly-NVal-His-Ala-DPA, 25° C. for 1 h; read-out: Experimental Example 3 IC50 MMP13
T3 construct: purchased R&D systems 511-MM
Procedure: Inhibitory activity of tested compounds on MMP-13 was measured using MMP-13 specific fluorescent substrate with quencher.
The enzyme and substrate were diluted with Tris-HCl buffer, and test compounds were diluted with dimethyl sulfoxide (DMSO).
Test compounds and the enzyme (Recombinant Human MMP-13: R&D systems, 511-MM) were added into 96-well plate. The reaction was initiated by adding synthetic substrate (7-MCA-Pro-CHA-Gly-NVal-His-Ala-DPA: enzyme systems products, Met-06) into the plate. After incubation at 25° C. for 1 h, the reaction was terminated by addition of reaction terminating solution containing acetic acid. Fluorescence intensity of each well was measured (Ex: 325 nm, Em: 405 nm) and the MMP-13 inhibitory activity of the compound in each well (%) was calculated based on the values of enzyme-free well and inhibitor-free well. The inhibitory activity of the compound was represented as IC50 (μM).

O=C(O)[C@@]12C[C@@]1(c1ccccc1)COCN2S(=O)(=O)c1ccc(-c2ccc(Cl)cc2)s1 (relative stereo) [Example 2-01, (1R*,6S*)-2-[5-(4-chlorophenyl)-thiophene-2-sulfonyl]-6-phenyl-4-oxa-2-aza-bicyclo[4.1.0]heptane-1-carboxylic acid]
IC50 (aggrecanase-1): ≥ 1000 nM
IC50 (MMP-1): ≥ 10 µM
IC50 (Recombinant Human MMP-13): ≥ 1000 nM

O=C(O)c1cnn(CCN([C@]2(C(=O)O)C[C@H]2c2ccccc2)S(=O)(=O)N2CCN(c3ccc(C(F)(F)F)cc3)CC2)c1 (relative stereo) [Example 2-05, 1-(2-{((1R*,2S*)-1-Carboxy-2-phenyl-cyclopropyl)-[4-(4-trifluoromethyl-phenyl)-piperazine-1-sulfonyl]-amino}-ethyl)-1H-pyrazole-4-carboxylic acid]
IC50 (aggrecanase-1): < 1000 nM
IC50 (MMP-1): ≥ 10 µM
IC50 (Recombinant Human MMP-13): ≥ 1000 nM

Nc1nnn(CCN([C@]2(C(=O)O)C[C@H]2c2ccccc2)S(=O)(=O)N2CCN(c3ccc(C(F)(F)F)cc3)CC2)n1 (relative stereo) [Example 2-06, (1R*,2S*)-1-{[2-(5-Amino-tetrazol-2-yl)-ethyl]-[4-(4-trifluoromethyl-phenyl)-piperazine-1-sulfonyl]-amino}-2-phenyl-cyclopropanecarboxylic acid]
IC50 (aggrecanase-1): ≥ 1000 nM
IC50 (MMP-1): ≥ 10 µM
IC50 (Recombinant Human MMP-13): ≥ 10000 nM

Nc1nnnn1CCN([C@]1(C(=O)O)C[C@H]1c1ccccc1)S(=O)(=O)N1CCN(c2ccc(C(F)(F)F)cc2)CC1 (relative stereo) [Example 2-07, (1R*,2S*)-1-{[2-(5-Amino-tetrazol-1-yl)-ethyl]-[4-(4-trifluoromethyl-phenyl)-piperazine-1-sulfonyl]-amino}-2-phenyl-cyclopropanecarboxylic acid]
IC50 (aggrecanase-1): ≥ 1000 nM
IC50 (MMP-1): ≥ 10 µM
IC50 (Recombinant Human MMP-13): ≥ 10000 nM

O=C(O)[C@@]12C[C@]1(c1ccccc1)CCCN2S(=O)(=O)c1ccc(-c2ccc(Cl)cc2)s1 (relative stereo) [Example 2-13, (1R*,6S*)-2-[5-(4-Chloro-phenyl)-thiophene-2-sulfonyl]-6-phenyl-2-aza-bicyclo[4.1.0]heptane-1-carboxylic acid]
IC50 (aggrecanase-1): < 1000 nM
IC50 (MMP-1): ≥ 10 µM
IC50 (Recombinant Human MMP-13): ≥ 1000 nM

O=C(O)[C@@]12C[C@]1(c1ccccc1)CCCN2S(=O)(=O)c1ccc(-c2cc(C(F)(F)F)on2)s1 (relative stereo) [Example 2-22, (1R*,6S*)-6-Phenyl-2-[5-(5-trifluoromethyl-isoxazol-3-yl)-thiophene-2-sulfonyl]-2-aza-bicyclo[4.1.0]heptane-1-carboxylic acid]
IC50 (aggrecanase-1): ≥ 1000 nM
IC50 (MMP-1): ≥ 10 µM
IC50 (Recombinant Human MMP-13): ≥ 1000 nM

O=C(O)[C@@]12C[C@]1(c1ccccc1)CCN2S(=O)(=O)c1ccc(-c2ccc(Cl)cc2)s1 (relative stereo) [Example 2-23, (1R*,5S*)-2-[5-(4-Chloro-phenyl)-thiophene-2-sulfonyl]-5-phenyl-2-aza-bicyclo[3.1.0]hexane-1-carboxylic acid]
IC50 (aggrecanase-1): ≥ 1000 nM
IC50 (MMP-1): ≥ 10 µM
IC50 (Recombinant Human MMP-13): ≥ 1000 nM

CN([C@]1(C(=O)O)C[C@@]1(CN1CCOCC1)c1ccccc1)S(=O)(=O)c1ccc(-c2cc(C(F)(F)F)on2)s1 (relative stereo) [Example 2-24, (1R*,2S*)-1-{Methyl-[5-(5-trifluoromethyl-isoxazol-3-yl)-thiophene-2-sulfonyl]-amino}-2-morpholin-4-ylmethyl-2-phenyl-cyclopropanecarboxylic acid]
IC50 (aggrecanase-1): ≥ 1000 nM
IC50 (MMP-1): ≥ 10 µM
IC50 (Recombinant Human MMP-13): ≥ 10000 nM

O=C(O)[C@@]12C[C@]1(c1ccccc1)COC(CO)CN2S(=O)(=O)c1ccc(-c2ccc(Cl)cc2)s1 (relative stereo) [Example 2-26, (1R*,7R*)-2-[5-(4-Chloro-phenyl)-thiophene-2-sulfonyl]-4-hydroxymethyl-7-phenyl-5-oxa-2-aza-bicyclo[5.1.0]octane-1-carboxylic acid]
IC50 (aggrecanase-1): ≥ 1000 nM
IC50 (MMP-1): ≥ 10 µM
IC50 (Recombinant Human MMP-13): ≥ 1000 nM

CN([C@@]1(C(=O)O)C[C@@H]1c1ccccc1)S(=O)(=O)c1ccc(-c2ccc(Cl)cc2)s1 [Example 2-03, (1S,2R)-1-{[5-(4-Chloro-phenyl)-thiophene-2-sulfonyl]-methyl-amino}-2-phenyl-cyclopropanecarboxylic acid]
IC50 (aggrecanase-1): ≥ 1000 nM
IC50 (MMP-1): ≥ 10 µM
IC50 (Recombinant Human MMP-13): ≥ 10000 nM

O=C(O)C1(N(CCO)S(=O)(=O)c2ccc(-c3ccc(Cl)cc3)s2)CC1c1ccccc1 (stereo not drawn) [Example 2-04, (1R*,2S*)-1-[[5-(4-Chloro-phenyl)-thiophene-2-sulfonyl]-(2)-hydroxy-ethyl)-amino]-2-phenyl-cyclopropanecarboxylic acid]
IC50 (aggrecanase-1): ≥ 1000 nM
IC50 (MMP-1): ≥ 10 µM
IC50 (Recombinant Human MMP-13): ≥ 1000 nM

O=C(O)CN([C@]1(C(=O)O)C[C@H]1c1ccccc1)S(=O)(=O)c1ccc(-c2ccc(Cl)cc2)s1 [Example 2-08, (1R,2S)-1-{Carboxymethyl-[5-(4-chloro-phenyl)-thiophene-2-sulfonyl]-amino}-2-phenyl-cyclopropanecarboxylic acid]
IC50 (aggrecanase-1): < 100 nM
IC50 (MMP-1): ≥ 10 µM
IC50 (Recombinant Human MMP-13): ≥ 10000 nM

O=C(O)CN([C@]1(C(=O)O)C[C@H]1c1ccccc1)S(=O)(=O)c1ccc(-c2cc(C(F)(F)F)on2)s1 [Example 2-09, (1R,2S)-1-{Carboxymethyl-[5-(5-trifluoromethyl-isoxazol-3-yl)-thiophene-2-sulfonyl]-amino}-2-phenyl-cyclopropanecarboxylic acid]
IC50 (aggrecanase-1): < 100 nM
IC50 (MMP-1): ≥ 10 µM
IC50 (Recombinant Human MMP-13): ≥ 1000 nM

O=C(O)CN([C@@]1(C(=O)O)C[C@@H]1c1ccccc1)S(=O)(=O)c1ccc(-c2ccc(Cl)cc2)s1 [Example 2-10, (1S,2R)-1-{Carboxymethyl-[5-(4-chloro-phenyl)-thiophene-2-sulfonyl]-amino}-2-phenyl-cyclopropanecarboxylic acid]
IC50 (aggrecanase-1): < 1000 nM
IC50 (MMP-1): ≥ 10 µM
IC50 (Recombinant Human MMP-13): ≥ 10000 nM

CN1CCN(C(=O)CN([C@@]2(C(=O)O)C[C@@H]2c2ccccc2)S(=O)(=O)c2ccc(-c3ccc(Cl)cc3)s2)CC1 [Example 2-11, (1S,2R)-1-{[5-(4-Chloro-phenyl)-thiophene-2-sulfonyl]-[2-(4-methyl-piperazin-1-yl)-2-oxo-ethyl]-amino}-2-phenyl-cyclopropanecarboxylic acid]
IC50 (aggrecanase-1): ≥ 1000 nM
IC50 (MMP-1): ≥ 10 µM
IC50 (Recombinant Human MMP-13): ≥ 10000 nM

CN([C@]1(C(=O)O)C[C@H]1c1ccccc1)S(=O)(=O)c1ccc(-c2ccc(Cl)cc2)s1 [Example 2-12, (1R,2S)-1-{[5-(4-Chloro-phenyl)-thiophene-2-sulfonyl]-methyl-amino}-2-phenyl-cyclopropanecarboxylic acid]
IC50 (aggrecanase-1): ≥ 1000 nM
IC50 (MMP-1): ≥ 10 µM
IC50 (Recombinant Human MMP-13): ≥ 1000 nM

CN1CCN(C(=O)OCCN([C@]2(C(=O)O)C[C@H]2c2ccccc2)S(=O)(=O)c2ccc(-c3ccc(Cl)cc3)s2)CC1 [Example 2-15, 4-Methyl-piperazine-1-carboxylic acid 2-{((1R,2S)-1-carboxy-2-phenyl-cyclopropyl)-[5-(4-chloro-phenyl)-thiophene-2-sulfonyl]-amino}-ethyl ester]
IC50 (aggrecanase-1): ≥ 1000 nM
IC50 (MMP-1): ≥ 10 µM
IC50 (Recombinant Human MMP-13): ≥ 1000 nM

O=C(CN([C@]1(C(=O)O)C[C@H]1c1ccccc1)S(=O)(=O)c1ccc(-c2ccc(Cl)cc2)s1)N1CCOCC1 [Example 2-16, (1R,2S)-1-[[5-(4-Chloro-phenyl)-thiophene-2-sulfonyl]-(2-morpholin-4-yl-2-oxo-ethyl)-amino]-2-phenyl-cyclopropanecarboxylic acid]
IC50 (aggrecanase-1): ≥ 1000 nM
IC50 (MMP-1): ≥ 10 µM
IC50 (Recombinant Human MMP-13): ≥ 1000 nM
